Target: PIK3CA (human) (UniProt P42336)
Experiment: Assessment of PIK3CA Kinase Activity

PIK3CA (human), sequence (P42336 whole entry, looked up): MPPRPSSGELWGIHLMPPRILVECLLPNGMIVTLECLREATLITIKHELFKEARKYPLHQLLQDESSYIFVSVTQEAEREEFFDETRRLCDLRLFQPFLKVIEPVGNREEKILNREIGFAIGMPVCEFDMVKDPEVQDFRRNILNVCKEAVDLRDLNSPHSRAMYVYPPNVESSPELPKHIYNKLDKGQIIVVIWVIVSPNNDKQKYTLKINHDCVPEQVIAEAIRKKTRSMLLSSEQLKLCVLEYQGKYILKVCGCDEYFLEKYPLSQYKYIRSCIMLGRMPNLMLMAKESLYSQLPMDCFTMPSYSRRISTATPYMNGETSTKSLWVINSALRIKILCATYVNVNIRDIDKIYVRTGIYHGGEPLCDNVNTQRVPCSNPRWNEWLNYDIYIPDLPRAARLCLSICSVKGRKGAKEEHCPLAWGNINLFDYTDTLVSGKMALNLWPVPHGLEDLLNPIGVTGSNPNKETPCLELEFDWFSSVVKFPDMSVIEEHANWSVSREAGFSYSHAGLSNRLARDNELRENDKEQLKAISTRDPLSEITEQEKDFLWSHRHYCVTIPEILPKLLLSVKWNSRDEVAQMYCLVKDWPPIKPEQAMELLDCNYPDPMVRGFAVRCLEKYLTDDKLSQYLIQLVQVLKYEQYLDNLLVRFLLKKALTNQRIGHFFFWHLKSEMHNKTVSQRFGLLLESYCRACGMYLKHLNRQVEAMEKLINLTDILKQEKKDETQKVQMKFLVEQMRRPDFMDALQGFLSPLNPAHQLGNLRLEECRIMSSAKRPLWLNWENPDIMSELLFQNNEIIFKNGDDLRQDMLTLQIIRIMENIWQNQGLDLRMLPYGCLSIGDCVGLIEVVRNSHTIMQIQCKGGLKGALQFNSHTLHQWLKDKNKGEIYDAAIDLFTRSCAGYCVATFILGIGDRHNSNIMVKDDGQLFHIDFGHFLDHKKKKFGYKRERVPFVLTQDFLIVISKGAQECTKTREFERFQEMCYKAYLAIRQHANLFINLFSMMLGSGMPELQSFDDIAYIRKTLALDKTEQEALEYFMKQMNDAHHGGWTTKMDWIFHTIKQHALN

| IC50 | SMILES |
| --- | --- |
| ≤ 100 nM | Cc1cc(-c2cnc3sc(N)nc3c2)cc2c1OCCN(c1nc(N)ccc1C#N)C2 |
| ≤ 100 nM | Cc1cc(-c2cnc3sc(N)nc3c2)cc2c1OCCN(c1nc(N)c(C#N)c(C)c1C#N)C2 |
| ≤ 100 nM | Cc1cc(-c2cnc3sc(N)nc3c2)cc2c1OCCN(c1nc(C3CNC3)nc(C)c1C(C)C)C2 |
| ≤ 100 nM | Cc1cc(-c2cnc3sc(N)nc3c2)cc2c1OCCN(c1nc(CNCC(F)F)nc(C)c1C(C)C)C2 |
| ≤ 100 nM | CC(=O)NCc1nc(C)c(C(C)C)c(N2CCOc3c(C)cc(-c4cnc5sc(N)nc5c4)cc3C2)n1 |
| ≤ 100 nM | Cc1cc(-c2cnc3sc(N)nc3c2)cc2c1OCCN(c1nc(C3CC3)nc(C)c1C(C)C)C2 |
| ≤ 100 nM | Cc1nc(C)c(C(C)C)c(N2CCOc3c(C)cc(-c4cnc5sc(N)nc5c4)cc3C2)n1 |
| ≤ 100 nM | Cc1cc(-c2cnc3sc(N)nc3c2)cc2c1OCCN(c1nc(N)nc(C)c1C(C)C)C2 |
| ≤ 100 nM | CCc1c(Cl)nc(N)nc1N1CCOc2c(C)cc(-c3cnc4sc(N)nc4c3)cc2C1 |
| ≤ 100 nM | CCCc1c(C)nc(N)nc1N1CCOc2c(C)cc(-c3cnc4sc(N)nc4c3)cc2C1 |
| ≤ 100 nM | C=Cc1c(C)ncnc1N1CCOc2c(C)cc(-c3cnc4sc(N)nc4c3)cc2C1 |
| ≤ 100 nM | Cc1cc(-c2cnc3sc(N)nc3c2)cc2c1OCCN(c1nc(CN(C)CCF)nc(C)c1C(C)C)C2 |
| 100 to 500 nM | Cc1cnc(N2CCOc3c(C)cc(-c4cnc5sc(N)nc5c4)cc3C2)nc1N |
| ≤ 100 nM | CCN(CCF)Cc1nc(C)c(C(C)C)c(N2CCOc3c(C)cc(-c4cnc5sc(N)nc5c4)cc3C2)n1 |
| ≤ 100 nM | CNCc1nc(C)c(C(C)C)c(N2CCOc3c(C)cc(-c4cnc5sc(N)nc5c4)cc3C2)n1 |
| ≤ 100 nM | CC(=O)c1c(C)ncnc1N1CCOc2c(C)cc(-c3cnc4sc(N)nc4c3)cc2C1 |

| IC50 | SMILES |
| --- | --- |
| ≤ 100 nM | COCc1c(C)nc(C)nc1N1CCOc2c(C)cc(-c3cnc4sc(N)nc4c3)cc2C1 |
| ≤ 100 nM | COCCc1c(C)nc(N)nc1N1CCOc2c(C)cc(-c3cnc4sc(N)nc4c3)cc2C1 |
| ≤ 100 nM | Cc1cc(-c2cnc3sc(N)nc3c2)cc2c1OCCN(c1nc(CF)nc(C)c1C(C)C)C2 |
| ≤ 100 nM | Cc1cc(-c2cnc3sc(N)nc3c2)cc2c1OCCN(c1nc(N)nc(C)c1C)C2 |
| ≤ 100 nM | COc1nc(C)c(C(C)C)c(N2CCOc3c(C)cc(-c4cnc5sc(N)nc5c4)cc3C2)n1 |
| ≤ 100 nM | CNc1nc(C)c(C(C)C)c(N2CCOc3c(C)cc(-c4cnc5sc(N)nc5c4)cc3C2)n1 |
| ≤ 100 nM | Cc1cc(-c2cnc3sc(N)nc3c2)cc2c1OCCN(c1nc(NCCN(C)C)nc(C)c1C(C)C)C2 |
| ≤ 100 nM | Cc1cc(-c2cnc3sc(N)nc3c2)cc2c1OCCN(c1nc(CN)nc(C)c1C(C)C)C2 |
| ≤ 100 nM | Cc1cc(-c2cnc3sc(N)nc3c2)cc2c1OCCN(c1nc(CNCCF)nc(C)c1C(C)C)C2 |
| 100 to 500 nM | Cc1cc(-c2cnc3sc(N)nc3c2)cc2c1OCCN(c1nccc(N)n1)C2 |
| ≤ 100 nM | C=Cc1c(CC)nc(N)nc1N1CCOc2c(C)cc(-c3cnc4sc(N)nc4c3)cc2C1 |
| ≤ 100 nM | Cc1cc(-c2cnc3sc(N)nc3c2)cc2c1OCCN(c1nc(C(C)N)nc(C)c1C(C)C)C2 (stereo unspecified) |
| ≤ 100 nM | Cc1cc(-c2cnc3sc(N)nc3c2)cc2c1OCCN(c1nc(CN(C)C)nc(C)c1C(C)C)C2 |
| ≤ 100 nM | Cc1cc(-c2cnc3sc(N)nc3c2)cc2c1OCCN(c1nc(C(C)O)nc(C)c1C(C)C)C2 (stereo unspecified) |
| ≤ 100 nM | CCNCc1nc(C)c(C(C)C)c(N2CCOc3c(C)cc(-c4cnc5sc(N)nc5c4)cc3C2)n1 |

Second part, the compound before the results:

| SMILES | IC50 |
| --- | --- |
| Cc1cc(-c2ccncc2)cc2c1OCCN(c1nc(N)nc(C)c1C(C)C)C2 | ≤ 100 nM |
| Cc1cc(-c2cnc(Cl)c(NS(C)(=O)=O)c2)cc2c1OCCN(c1nc(CNCCF)nc(C)c1C(C)C)C2 | ≤ 100 nM |
| Cc1cc(-c2cnc3sc(N)nc3c2)cc2c1OCCN(c1ncnc3c1CC(C)(C)C=C3)C2 | ≤ 100 nM |
| Cc1cc(-c2cncnc2)cc2c1OCCN(c1nc(N)nc(C)c1C(C)C)C2 | 100 to 500 nM |
| Cc1nc2ncc(-c3cc(C)c4c(c3)CN(c3nc(CNCC(F)F)nc(C)c3C(C)C)CCO4)cc2[nH]1 | ≤ 100 nM |
| Cc1cc(-c2cnc3sc(N)nc3c2)cc2c1OCCN(c1ncncc1C(C)C)C2 | ≤ 100 nM |
| Cc1cc(-c2cncc(NS(C)(=O)=O)c2)cc2c1OCCN(c1nc(N)nc(C)c1C(C)C)C2 | ≤ 100 nM |
| Cc1cc(-c2cnc3sc(N)nc3c2)cc2c1OCCN(c1nc([C@@H]3C[C@@H](F)CN3)nc(C)c1C(C)C)C2 | ≤ 100 nM |
| COc1cncc(-c2cc(C)c3c(c2)CN(c2nc(N)nc(C)c2C(C)C)CCO3)c1 | ≤ 100 nM |
| Cc1cc(-c2ccc3c(c2)OCO3)cc2c1OCCN(c1nc(N)nc(C)c1C(C)C)C2 | ≤ 100 nM |
| Cc1cc(-c2cnc(Cl)c(NS(=O)(=O)C(F)(F)F)c2)cc2c1OCCN(c1nc(N)nc(C)c1C(C)C)C2 | ≤ 100 nM |
| Cc1nc2ccc(-c3cc(C)c4c(c3)CN(c3nc(N)nc(C)c3C(C)C)CCO4)cc2[nH]1 | ≤ 100 nM |
| Cc1nc(C)c(C(C)C)c(N2CCOc3c(C)cc(-c4nnc(N)s4)cc3C2)n1 | ≤ 100 nM |
| Cc1cc(-c2cnc3sc(N)nc3c2)cc2c1OCCN(c1nc(N3CCN(C)CC3)nc(C)c1C(C)C)C2 | ≤ 100 nM |
| Cc1cc(-c2cnc(Cl)c(NS(C)(=O)=O)c2)cc2c1OCCN(c1nc(N)ncc1C(F)(F)F)C2 | ≤ 100 nM |
| Cc1ncc(C)c(N2CCOc3c(C)cc(-c4nnc(N)s4)cc3C2)n1 | 100 to 500 nM |
| Cc1cc(-c2cnc3sc(N)nc3c2)cc2c1OCCN(c1nc(CN(C)C)ncc1C(C)C)C2 | ≤ 100 nM |
| CSc1nc(Cl)c(C(C)(C)O)c(N2CCOc3c(C)cc(-c4cnc5sc(N)nc5c4)cc3C2)n1 | 100 to 500 nM |
| Cc1cc(-c2cnc3sc(N)nc3c2)cc2c1OCCN(c1nc(N)c(C#N)cc1C#N)C2 | ≤ 100 nM |
| Cc1nc2c(c(N3CCOc4c(C)cc(-c5cnc6sc(N)nc6c5)cc4C3)n1)CC(C)(C)CC2 | ≤ 100 nM |
| CNc1ncnc(N2CCOc3c(C)cc(-c4cnc5sc(N)nc5c4)cc3C2)c1[N+](=O)[O-] | 100 to 500 nM |
| Cc1cc(-c2cnc3sc(N)nc3c2)cc2c1OCCN(c1ncc(C#N)c(N)n1)C2 | ≤ 100 nM |
| Cc1cc(-c2cnc3sc(N)nc3c2)cc2c1OCCN(c1nc(C(O)C(F)(F)F)nc(C)c1C(C)C)C2 (stereo unspecified) | ≤ 100 nM |

| SMILES | IC50 |
| --- | --- |
| Cc1cc(-c2cnc(Cl)c(NS(C)(=O)=O)c2)cc2c1OCCN(c1ncc(C(F)(F)F)c(N)n1)C2 | ≤ 100 nM |
| Cc1cc(-c2ccnc(F)c2)cc2c1OCCN(c1nc(N)nc(C)c1C(C)C)C2 | ≤ 100 nM |
| Cc1cc(-c2cnc3sc(N)nc3c2)cc2c1OCCN(c1nc(CNC3CC3)nc(C)c1C(C)C)C2 | ≤ 100 nM |
| Cc1cc(-c2ccn[nH]2)cc2c1OCCN(c1nc(N)nc(C)c1C(C)C)C2 | ≤ 100 nM |
| Cc1cc(-c2cnc3sc(N)nc3c2)cc2c1OCCN(c1nc(CN(C)C)nc(Cl)c1C(C)C)C2 | ≤ 100 nM |
| Cc1nc(N)nc(N2CCOc3ccc(-c4cnc5sc(N)nc5c4)cc3C2)c1C(C)C | ≤ 100 nM |
| COc1ccc(-c2cc(C)c3c(c2)CN(c2nc(N)nc(C)c2C(C)C)CCO3)cn1 | ≤ 100 nM |
| COc1ncc(-c2cc(C)c3c(c2)CN(c2nc(N)nc(C)c2C(C)C)CCO3)cc1NS(C)(=O)=O | ≤ 100 nM |
| Cc1cc(-c2cnc3sc(N)nc3c2)cc2c1OCCN(c1ncc(C(F)(F)F)c(N)n1)C2 | 100 to 500 nM |
| Cc1cc(-c2cn[nH]c2)cc2c1OCCN(c1nc(N)nc(C)c1C(C)C)C2 | ≤ 100 nM |
| Cc1cc(-c2cnc3sc(N)nc3c2)cc2c1OCCN(c1nc(CN3CCC(F)(F)C3)nc(C)c1C(C)C)C2 | ≤ 100 nM |
| Cc1cc(-c2cnc3nc[nH]c3c2)cc2c1OCCN(c1nc(CN(C)CC(F)F)nc(C)c1C(C)C)C2 | ≤ 100 nM |
| CNC(=O)c1sc(N2CCOc3c(C)cc(-c4cnc(Cl)c(NS(C)(=O)=O)c4)cc3C2)nc1C(C)C | 100 to 500 nM |
| CCN(Cc1nc(C)c(C(C)C)c(N2CCOc3c(C)cc(-c4cnc5nc[nH]c5c4)cc3C2)n1)CC(F)F | ≤ 100 nM |
| Cc1cc(-c2cnc(N)s2)cc2c1OCCN(c1nc(N)nc(C)c1C(C)C)C2 | ≤ 100 nM |
| Cc1cc(-c2nnc(N)s2)cc2c1OCCN(c1nc(N)ncc1C(C)C)C2 | ≤ 100 nM |
| Cc1cc(-c2cnc3nc[nH]c3c2)cc2c1OCCN(c1nc(N)nc(C)c1C(C)C)C2 | ≤ 100 nM |
| Cc1cc(-c2cccc(O)c2)cc2c1OCCN(c1nc(N)nc(C)c1C(C)C)C2 | ≤ 100 nM |
| Cc1cc(-c2nnc(N)s2)cc2c1OCCN(c1ncncc1C(C)C)C2 | ≤ 100 nM |
| Cc1cc(-c2cnc3sc(N)nc3c2)cc2c1OCCN(c1ncnc3c1CC[C@H](C)C3)C2 | ≤ 100 nM |
| Cc1cc(-c2cnc(Cl)c(NS(C)(=O)=O)c2)cc2c1OCCN(c1nc(C(=O)NCCN(C)C)nc(C)c1C(C)C)C2 | ≤ 100 nM |
| COc1cc(-c2cnc3sc(N)nc3c2)cc2c1OCCN(c1nc(CN(C)C)nc(C)c1C(C)C)C2 | ≤ 100 nM |
